# Source: US12082579B2, “Compositions and methods to manage hemiptera” (ISCA Technologies, Inc., priority 2021, dated 2024)
# Tested on: Diceraus melacanthus
# Experiment: Field study in a wheat harvest area: attraction of stink bugs by pear ester versus regular pheromone, 24 hour period, six blocks
# Format: in vivo
# Details: for attraction rate (stink bugs attracted per treatment): wheat harvest area
# Method: A study was conducted to evaluate the effectiveness of pear ester versus regular pheromone to attract sting bugs. In particular, a study was conducted in a wheat harvest area in an attempt to attract the stink bug, Diceraus melacanthus.
smiles,measurement,setting,value
"CCCCC/C=C\C=C\C(=O)OCC [Pear Ester, Ethyl-2E,4Z-decadienoate]",attraction rate compared with regular pheromone,"24 hour period, six blocks, result in words","at least, the same as the regular pheromone"
same,attraction rate (stink bugs attracted per treatment),"Block 1, 24 hour period",3
same,attraction rate (stink bugs attracted per treatment),"Block 2, 24 hour period",1
same,attraction rate (stink bugs attracted per treatment),"Block 3, 24 hour period",0
same,attraction rate (stink bugs attracted per treatment),"Block 4, 24 hour period",0
same,attraction rate (stink bugs attracted per treatment),"Block 5, 24 hour period",3
same,attraction rate (stink bugs attracted per treatment),"Block 6, 24 hour period",1
same,"attraction rate, Mean","Mean of six blocks, 24 hour period",1.33
same,"attraction rate, Sum","Sum of six blocks, 24 hour period",8.00
same,attractant effect on stink bugs,"stink bugs, including Diceraus melacanthus, Nezara viridula, Piezodorus guildinii, Tibraca limbativentris, Chinavia spp, Edessa meditabunda, Euschistus heros, result in words",clearly has an attractant effect
